Assay results as given in US8048869B2, “Pharmaceutical composition for use in hormone replacement therapy” (Pantarhei Bioscience B.V., priority 2001, dated 2011).

What was measured:
[1] = molecular target: T1, human sex Hormone Binding Globulin (SHBG) (Homo sapiens, UniProt P04278); assay: Competitive steroid-binding assay, SHBG; conditions: [3H]DHT or [3H]estradiol as labeled ligands (FIG. 6)
T1 construct: Human SHBG was purified from transgenic mouse serum, as described previously; from tissue; host or cells: serum of mice transgenic for human SHBG
T1 sequence (P04278 30-402): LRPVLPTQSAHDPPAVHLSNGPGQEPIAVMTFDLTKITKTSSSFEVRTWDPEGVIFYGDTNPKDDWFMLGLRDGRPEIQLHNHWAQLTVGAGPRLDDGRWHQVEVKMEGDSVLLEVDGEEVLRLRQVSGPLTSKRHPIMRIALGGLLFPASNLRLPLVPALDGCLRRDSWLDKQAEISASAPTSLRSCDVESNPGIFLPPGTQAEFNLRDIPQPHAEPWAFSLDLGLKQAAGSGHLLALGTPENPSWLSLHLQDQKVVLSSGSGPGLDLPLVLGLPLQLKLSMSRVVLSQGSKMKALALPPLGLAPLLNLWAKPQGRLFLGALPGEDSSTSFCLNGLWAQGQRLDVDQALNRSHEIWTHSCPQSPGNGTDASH
Procedure: Human SHBG was treated for 30 min at room temperature with a dextran-coated charcoal (DCC) suspension in phosphate buffered saline (PBS) to remove any steroid ligand. After centrifugation (2,000×g for 10 min) to sediment the DCC, the supernatant containing the human SHBG was diluted in PBS to a concentration of 1 nM based on its steroid binding capacity.
After incubation for 1 h at room temperature the. reaction mixtures were placed in an ice bath for a further 15 muin. […] The average amounts of [^3H]labeled ligands bound to SHBG at each concentration of competitor (B) were expressed as a percentage of the average amounts of [^3H]labeled ligands bound to SHBG in the absence of competitor (B0), and were plotted against the concentration of competitor in each assay tube.

OVX-rats [2] = assay: Indentation test of distal femur (bone biomechanical strength), OVX rat; type: in vivo; conditions: po, 0.1 mg/kg/day, 4 weeks, distal femur
Procedure: (§1) The ovariectomized aged rat was used as a model for the human disease osteoporosis. This is an established animal model, recommended by the United States Food and Drug Administration (FDA), to evaluate and assess potential agents for osteoporosis prevention and therapy. The anti-resorptive efficacy of estetrol (E4) was tested by ex vivo measuring total and trabecular bone mineral density and bone strength after 4 weeks of treatment at necropsy. 17α-ethinyl-estradiol (EE) and vehicle (1% ethanol/arachidis oil) served as controls in this bioassay.
(§2) Three months old female Sprague-Dawley rats were either sham-operated (Sham) or ovariectomized (OVX) one day prior to commencement of the dosing study. Animals were anesthetized using a ketamine/xylazine anesthetic mixture and underwent a bilateral ovariectomy or were sham-treated. A section of hair on the dorsal surface was shaved and an incision made overlying the lumbar region of the spine. The skin was separated from the underlying fascia so that a second incision could be made through the abdominal musculature approximately caudal to the kidneys. The ovaries were then exteriorized and removed and the musculature was closed with a single suture. The skin incision was closed using surgical staples.
(§3) Ten animals per treatment group were orally dosed once per day for four consecutive weeks. The dosing commenced 1 day after surgical removal of the ovaries and was administered by oral gavage using a syringe and stainless steel gavage needle at doses of 0.1 mg/kg /day EE, or either 2.5, 0.5 or 0.1 mg/kg/day E4. Vehicle control was daily administered to one group of OVX-animals and sham-operated rats. After treatment, anesthetized rats were subjected to cardiac puncture and asphyxiated by CO2 inhalation. Tibiae and femura were removed, cleaned of soft-tissue and fixed and stored in 70% ethanol/saline at 4° C. (tibia) or saline at 4° C. (femura) until fuirther analysis.
Ex vivo evaluation of bone biomechanical strength was performed with an indentation test at the distal femura. Prior to mechanical testing femura were rinsed in cold saline and carefully cleaned of any remaining adherent soft tissue. A 3-mm segment of the distal femoral metaphysis was cut directly proximal to the femoral condyle with a low-speed diamond saw under constant saline irrigation. The load was applied with a cylindrical indenter (with a flat testing face of 1.6 mm diameter) to the center of marrow cavity on the distal face of the segment. The indenter was allowed to penetrate the cavity at a constant displacement of 6 mm/min to a depth of 2 mm before load reversal.
The maximum load, stiffness and energy absorbed were determined from load displacement curves. Ultimate strength was calculated by dividing the maximum load by the indenter area. Furthermore, mean ultimate strength values are depicted in FIG. 2. […] Reductions in maximum load, stiffness, energy and ultimate strength were −68%, −68%, −27% and −68%, respectively, clearly accompanying the bone mineral density loss in estrogen deficient rats.

OVX-rats [3] = assay: pQCT densitometry of proximal tibiae, ovariectomized aged rat osteoporosis model; type: in vivo; conditions: po, 0.1 mg/kg/day, 4 weeks, proximal tibiae
Procedure: as §1, §2
as §3, with “The dosing commenced 1 day after surgical removal of the ovaries and was administered by oral gavage using a syringe and stainless steel gavage needle at doses of 0.1 mg/kg /day EE, or either 2.5, 0.5 or 0.1 mg/kg/day E4.” left out
Ex vivo peripheral Quantitative Computed Tomography (pQCT) was performed on the excised left tibiae using a Stratec XCT-RM and associated software (Stratec Medizintechnik GmbH, Pforzheim; Germany, software version 5.40). The scans were performed at 12% of the total length from the proximal end of the tibiae. The positions were verified using scout views and one 0.5-mm slice perpendicular to the long axis of the tibial shaft was acquired from each site. The scans were analyzed using a threshold for delineation of the external boundary. The total and trabecular bone mineral content, area and density at each site were determined. Furthermore, pQCT data for mean total bone mineral density are depicted in FIG. 1.

Compound: C[C@]12CCC(=O)C[C@@H]1CC[C@@H]1[C@@H]2CC[C@]2(C)[C@@H](O)CC[C@@H]12 [5α-dihydrotestosterone]
- relative binding affinity for human SHBG [1]: in this order, show an increased relative binding affinity

Compound: C#C[C@]1(O)CC[C@H]2[C@@H]3CCc4cc(O)ccc4[C@H]3CC[C@@]21C [EE, 17α-ethinyl estradiol, reference compound]
- Energy (OVX-rats [2]): 0.53 mJ
- Maximum load (OVX-rats [2]): 9.05 N
- Stiffness (OVX-rats [2]): 169.12 N/mm
- Ultimate strength (OVX-rats [2]): 4.80 N/mm2
- Mean Total Bone Mineral Area (OVX-rats [3]): 13.87 mm^2
- Mean Total Bone Mineral Content (OVX-rats [3]): 9.66 mg/mm
- Mean Total Bone Mineral Density (OVX-rats [3]): 697.48 mg/mL
- Mean Trabecular Bone Mineral Area (OVX-rats [3]): 6.24 mm^2
- Mean Trabecular Bone Mineral Content (OVX-rats [3]): 1.81 mg/mm
- Mean Trabecular Bone Mineral Density (OVX-rats [3]): 290.16 mg/mL

Compound: C[C@]12CC[C@H]3[C@@H](CCC4=CC(=O)CC[C@@]43C)[C@@H]1CC[C@@H]2O [testosterone]
- relative binding affinity for human SHBG [1]: in this order, show an increased relative binding affinity
